Values of other authors in US9334250B2, “Multifunctional radical quenchers for the treatment of mitochondrial dysfunction” (Arizona Board of Regents, A Body Corporate of the State of …, priority 2012, dated 2016).

Details: James et al. (2005) J Biol. Chem. 280, 21295-21312

COC1=C(OC)C(=O)C(C/C=C(\C)CC/C=C(\C)CC/C=C(\C)CC/C=C(\C)CC/C=C(\C)CC/C=C(\C)CC/C=C(\C)CC/C=C(\C)CC/C=C(\C)CCC=C(C)C)=C(C)C1=O [coenzyme Q10]
calculated octanol-water partition coefficient: > 1e+20
